This note sets out measurements from patent US9023767B2, “γ-Secretase substrates and methods of use” (Memorial Sloan-Kettering Cancer Center, priority 2009, dated 2015).

Test [1] has as its target T1, γ-secretase (Homo sapiens (Human), UniProt P49768). Nature of the test: HTRF γ-secretase assay with Sb4 substrate. It is filed as biochemical. The source says:
We set out to transfer the assay conditions obtained with the ECL method to an HTRF detection based format (FIG. 10b). The HTRF detection mixture consisted of mouse G2-10 antibody for recognition of the C-terminal epitope of the cleaved product, a Europium-labeled anti-mouse antibody (commonly, an antibody is conjugated with a cryptate ligand that forms a three dimensional coordination cage structure surrounding a lanthanide such as Eu^3+), along with Streptavidin conjugated to a trimeric form of the fluorescent protein allophycocyanin referred to as XL665. Cleavage of Sb4 substrate allows G2-10 mouse antibody to bind to the Aβ40-processed site on the cleaved substrate. The Steptavidin-XL665 conjugate binds directly with the biotin moiety on the N-terminal end of the Sb4 derived product. The anti-mouse Europium antibody targets to the G2-10 antibody, bringing all of these entities into close proximity. The Europium and XL665 reagents are a compatible pair of donor-acceptor fluorophores, and excitation of Europium at 337 nm results in fluorescence energy resonance transfer (FRET) to XL665 which fluoresces at 665 nm (FIG. 10b).
Human γ-secretase was prepared from HeLa cell membranes as described previously (Li et al., 2000). Briefly, HeLa cell pellet was resuspended in 1×MES buffer (50 mM MES, pH 6.0, 150 mM KCl, 5 mM CaCl2, 5 mM MgCl2) and treated with ‘complete’ protease inhibitor (Boehringer Mannheim). The resuspended pellet was mechanically homogenized by passing the cells through the French Press (Spectronic Instruments), and subsequently spun down at 800 g to remove cell debris and nuclei. Next, the supernatants were spun at 100,000 g in order to pellet the membranes. The pelleted membranes were resuspended in 1×MES buffer to approximately 12 mg/ml. This entire procedure was performed at 4° C. HeLa membranes were solubilized using 1% CHAPSO detergent in 1×MES buffer with protease inhibitors. After incubating for 1 hr at 4° C., the membrane was spun down at 100,000 g and the supernatants were collected and stored at −70° C. The collected fraction is defined as solubilized γ-secretase.
HTRF conditions were initially optimized in a 384-well format using a final volume of 20 μl. The high control for this assay was defined as the observed γ-secretase activity in the presence of 1% DMSO (v/v) and the low control as the activity observed when including 100 nM final concentration of Compound E (v/v). First, we determined a tolerable DMSO concentration that would not interfere with γ-secretase activity. Even with 3% DMSO (v/v) present in the assay mixture, there was virtually no effect on the γ-secretase activity (FIG. 11a), which was critical as delivery of library screening compounds required a final concentration of 2% DMSO (v/v) in the γ-secretase reaction. Next, we titrated the HTRF mixture components in an effort to minimize reagent costs for use in high throughput screening. […] Additionally, we varied Europium conjugated anti-mouse antibody and determined that 1 nM of this reagent in the HTRF mixture was sufficient for our assay conditions even though the signal continued to increase with higher concentrations of the anti-mouse antibody (FIG. 11c).
We have further miniaturized the HTRF assay from the established 384-well format to a 1536-well platform enabling more efficient screening of large chemical libraries. […] Based on these optimization experiments, we set our final assay conditions at 0.3 nM G2-10, 1 nM anti-mouse antibody, 15 nM Streptavidin-XL665, and proceeded with the assay at 10 μl final volume (5 μl γ-secretase mix+5 μl HTRF mix) in the 1536-well format for screening.
The pilot assay was performed in duplicate on two separate days to account for any day-to-day variability. […]
Background: In TR-FRET formats the signal depends on donor and acceptor labels being close together.

Test [2] deals with T1, γ-secretase. Nature of the test: In vitro γ-secretase assay, solubilized γ-secretase, ECL. It is filed as biochemical. As to conditions: Sb4 substrate.
Description: The γ-secretase cleaved Aβ product derived from C100Flag substrate was detected by a pair of antibodies (biotinylated 4G8 and ruthenylated G2-10*) while Sb4 cleaved product was detected by ruthenylated G2-10* alone (FIG. 10a) and quantified using electrochemiluminescence (ECL) technology.
An in vitro assay was based on the one previously reported by Li et al. (2000), except we utilized Sb4 substrate that eliminated the need for biotinylated antibody. […] All assays incorporate ruthenylated G2-10* antibody to detect 40-site cleavage of APP or recombinant Sb4 substrate and quantitated activity by measuring ECL.
The target in test [3] is T1, γ-secretase. Kind of test: Extended exo-cell γ-secretase assay, HeLa cells. It is filed as cell-based. The procedure: The potency of two structurally different GSIs was assayed in four unique γ-secretase activity assays. IC50 values were determined from the dose response curves using a non-linear regression analysis in the Prism software. An in vitro assay was based on the one previously reported by Li et al. (2000), except we utilized Sb4 substrate that eliminated the need for biotinylated antibody. The cell-based activity assay used N2A mouse neuroblastoma cells stably over-expressing APP and a biotinylated 4G8 antibody that binds the C-terminus of the amyloid beta peptide. The exo-cell assay incubated HeLa cells simultaneously with GSI, Sb4 substrate as well as 0.25% CHAPSO detergent prior to detecting substrate cleavage. Finally, the extended exo-cell assay first incubated HeLa cells with GSI for 24 hrs. Subsequently, the cells were washed 1× in PBS and then incubated with Sb4 substrate and CHAPSO detergent. The assay was then carried out exactly as described for the original exo-cell method. All assays incorporate ruthenylated G2-10* antibody to detect 40-site cleavage of APP or recombinant Sb4 substrate and quantitated activity by measuring ECL. The latter assays were performed as previously described (Li et al., 2000). In the in vitro assay, recombinant Sb4 substrate was incubated for 2.5 hours at 37° C. in pH 7.0 PIPES buffer in the presence of 0.25% CHAPSO detergent and solubilized γ-secretase at a final concentration of 40 ng/ul. The detection of cleaved substrate was determined using ruthenylated G2-10* antibody. Since the Sb4 substrate is biotinylated additional 6E10 biotinylated antibody used in earlier assays is not required. […]
The exo-cell assay was adapted to monitor real-time γ-secretase activity and inhibition over extended times of pretreatment regimens. […] This modified, extended treatment exo-cell assay is capable of quantifying remaining γ-secretase activity following drug treatment on virtually any cell type. The IC50 values for Compound E and GSI-34 were calculated using the extended exo-cell assay (Table 3 and FIG. 15d). […]

Structures are written as SMILES.

Broadly, the IC50 is the concentration needed to halve the response being measured.

Regarding `CC(NC(=O)Cc1cc(F)cc(F)c1)C(=O)NC1N=C(c2ccccc2)c2ccccc2N(C)C1=O` (stereo not shown) [Compound E], the IC50 at γ-secretase [1] was 1.1 nM; at γ-secretase [2], 1.2 nM; on γ-secretase [3] (24 hrs pretreatment, read-out: Extended Exo-Cell (nM), IC50), 2.8 nM; at γ-secretase [3] (Extended Exo-Cell (nM), IC50, 24 hrs pretreatment), 2.83 nM.
